Reference: patent US20110076318A1, “RETINOID-CONTAINING SUSTAINED RELEASE INTRAOCULAR IMPLANTS AND RELATED MATTERS” (Allergan, Inc., priority 2004, published 2011)
Where two headings read alike, the source gives them in different places.

What was measured:
RPE proliferation = conditions: biphasic, read-out: IC50, prevention of RPE proliferation in-vitro (biphasic), cited from earlier work
[1] = tested on: traction retinal detachment (PVR); conditions: cited from earlier work
[2] = cited from earlier work
[3] = tested on: PVR induced by human RPE cells; experiment: PVR model with retinoid implants, Fastenberg scale; assay type: in vivo; conditions: at 28 days; 10% loaded PLA/PLGA implants, intravitreal
Description: PLA and PLGA implants 1.5 mm in diameter and 3 mm in length were fabricated by extrusion of the polymer drug blend. Tazarotenic acid (the free acid of Tazarotene) Tazarotene and 13-cis-retinoic acid were loaded into the implants at 10% concentrations. Briefly, pigmented rabbits were vitrectomized followed by intravitreal injection of 500,000 human RPE cells. After injection of the RPE cells the retinoid implants were placed into the vitreous and anchored to the sclera with the suture used to close the sclerotomy.
The eyes were examined weekly for 4 weeks. Severity of PVR was graded based on the Fastenberg scale. At 4 weeks gross pathology and limited histopathology were conducted.

PVR = conditions: orally administered, retrospective study; cited from earlier work
photoreceptors = experiment: Rhodopsin mutant transgenic rat models of retinal degeneration; assay type: in vivo, Transgenic S334ter rats; conditions: i.p., S334ter line 3 and line 4
Method: The objective of this study was to determine the efficacy of various retinoids in preventing retinal damage or improving retinal survival in rhodopsin mutant transgenic rat models of retinal degeneration. The overall goal of the research was to investigate potential photoreceptor survival in mutant rhodopsin transgenic rats using RAR α, RAR β γ, and RXR retinoid agonists.
The experimental design was straightforward. A compound was injected daily to line 3 and every two days for line 4 animals (i.p.) for a given period and animals were sacrificed at the end by CO2 overdose followed immediately by vascular perfusion of mixed aldehydes. Two litters of rats were used:
1. Transgenic S334ter-3 rats. Line 3 bears a rhodopsin mutation S334ter. […] Injection of a compound will be given daily from PD 6 (post-delivery day 6) to PD 20.
2. Transgenic S334ter-4 rats. Line 4 bears a rhodopsin mutation S334ter. Animals of this line experience a 80% loss of photoreceptors by 60 days after birth. The ONL is reduced to one row of nuclei. Injection of a compound will be given every other day from PD 25 to PD 60.
For the line 3 animals, treatment started at PD 6 and the endpoint was PD 20. For the line 4, injection began at PD 25 and ended at PD60 when eyes were harvested. Eyes were embedded in an Epon/Araldite mixture for sectioning at 1 μm thickness along the vertical meridian. Protection of photoreceptors was be evaluated by counting the rows of nuclei in the outer nuclear layer.
The outcome was a measure of retinal outer layer thickness, and cytology over an 8 week period. Compounds included the retinoid agonists tazarotene (RAR β γ), AGN 195183 (RAR α) and AGN 194204 (RXR). […] This is a fairly harsh model and as such the modest improvement by tazarotene is quite significant.

[4] = Protein binding of tazarotenic acid; assay type: in vitro ADME
[5] = Plasma concentrations after topical and oral dosing of tazarotene; assay type: in vivo, patients; conditions: for Cmax: human; for Cmax / TAZAROTENIC ACID Ctrough: plasma
Method: […] For the most part tazarotene is not observed in the plasma after topical or oral administration. Facile hydrolysis by pre-systemic metabolism rapidly generates the free acid. […] It is important to note that these are plasma concentrations and the eye plasma distribution ratio is 0.02. Over 90% of all patients in the phase 3 clinical trials had concentrations of the parent compound, tazarotene, <1 ng/mL with the highest being 6 ng/mL.
(§1) Oral delivery of 1.1 mg and 6 mg multiple doses led to 28.9 ng/mL and 227 ng/ml peak levels with a 2.56 ng/mL trough. This corresponds to a maximum possible 4 ng/mL ocular level for the highest dose. FIG. 11 depicts the tissue distribution of tazarotenic acid. The eyes show a 2% tissue/plasma ration in the rat. It should be noted that tazarotenic acid is 99% protein bound and distribution is limited to unbound drug.

[6] = Tissue-to-plasma distribution after daily topical 14C-tazarotene; assay type: in vivo; conditions: rat
Method: FIG. 11 is a graph illustrating tissue-to-plasma concentration ratios of after twenty-one days of daily topical application of 14C-tazarotene to the skin of rats.
as §1

[7] = Ocular disposition of tazarotene and tazarotenic acid after intravitreal and subconjunctival dosing; assay type: in vivo, albino rabbits
Method: General disposition of intraocular and subconjunctivally administered tazarotene and tazarotenic acid was assessed. Briefly, albino rabbits were dosed via intraocular injection with 1.25 μg of tazarotene or tazarotenic acid. Injection was made mid-vitreous. After dosing the vitreous, retina and aqueous humor concentrations of tazarotene and tazarotenic acid were determined at 0.5, 1, 2, 4, 8, 12 and 24 hours post dosing. […] Additionally, the tazarotenic acid concentrations asymptotically approach approximately 10 ng/mL.
Tazarotene was also dosed in the subconjunctival space. Three dosage forms were evaluated: A tazarotene aqueous suspension (1 mg), a tazarotene subconjunctival olive oil solution (1 mg), and an tazarotene poly (lactide-co-glycolide) microsphere suspension. After dosing, the vitreous, retina and aqueous humor concentrations of tazarotene and tazarotenic acid were determined at 2, 8, 24, 48, 96, 168 and 336 hours post dosing. It was observed that subconjunctival administration achieved significant levels of tazarotene and tazarotenic acid in the ocular tissues.
Briefly, albino rabbits were dosed via intraocular injection with 1.25 μg of tazarotene or tazarotenic acid. Injection was made mid-vitreous. After dosing the vitreous, retina and aqueous humor concentrations of tazarotene and tazarotenic acid were determined at 0.5, 1, 2, 4, 8, 12 and 24 hours post dosing. […]

[8] = Five to ten μg in a silicone oil tamponade

Compound: CC1=C(/C=C/C(C)=C/C=C/C(C)=C/C(=O)O)C(C)(C)CCC1 [RA, All trans-retinoic acid]
- IC50 (RPE proliferation; first value): 0.01 nM
- IC50 (RPE proliferation; second value): 17 nM
- traction retinal detachment in animal model of PVR [1, 8]: effectively prevent traction retinal detachment
- traction retinal detachment in animal model of PVR ([1]; Ten and 15 μg in 1-% hyaluronic acid and BSS): reduced traction retinal detachment
- ocular toxicity by histopathology and ophthalmoscopic examination ([2]; five to ten μg in silicone oil): no ocular toxicity
- concentration well tolerated with no ERG changes ([2]; in vivo): up to 15 μg/mL

Compound: CC1=C(/C=C/C(C)=C/C=C/C(C)=C\C(=O)O)C(C)(C)CCC1 [Isotretinoin, 13-cis-retinoic acid]
- eyes progressed to traction retinal detachment [3]: 22%
- effect on PVR and retinal attachment (PVR): effective at decreasing PVR and increasing the rate of retinal attachment
- traction retinal detachment in animal model of PVR [1, 8]: effectively prevent traction retinal detachment

Compound: CC(/C=C/[C@@H]1C[C@]1(C)c1ccc2c(c1)C(C)(C)CCC2(C)C)=C\C(=O)O [AGN 194204]
- protection of photoreceptors (outer nuclear layer) (photoreceptors): Tazarotene was the only compound to show efficacy

Compound: CC1(C)CCSc2ccc(C#Cc3ccc(C(=O)O)cn3)cc21 [Tazarotenic Acid, 4,4-dimethyl-6-[2′-(5″-carboxy-2″-pyridyl)-ethynyl]-thiochroman]
- eyes progressed to traction retinal detachment [3]: 12%
- protein bound [4]: 99%
- maximum possible ocular level ([5]; highest oral dose (6 mg)): ≤ 4 ng/mL
- Cmax ([5]; po, 1.1 mg/Day, Oral 1.1 mg/Day, read-out: TAZAROTENIC ACID Cmax): 28.9 ng/mL
- Cmax ([5]; po, 3 mg/Day, Oral 3.0 mg/Day, read-out: TAZAROTENIC ACID Cmax): 81.6 ng/mL
- Cmax ([5]; po, 6 mg/Day, Oral 6.0 mg/Day, read-out: TAZAROTENIC ACID Cmax): 227 ng/mL
- Cmax ([5]; topical or ocular, 0.1 % gel, Topical Gel 0.1% 2% BSA, read-out: TAZAROTENIC ACID Cmax): 0.241 ng/mL
- Cmax ([5]; topical or ocular, 0.1 % gel, Topical Gel 0.1% 7% BSA, read-out: TAZAROTENIC ACID Cmax): 0.83 ng/mL
- Cmax ([5]; topical or ocular, 0.1 % gel, Topical Gel 0.1% 15% BSA, read-out: TAZAROTENIC ACID Cmax): 4.8 ng/mL
- Cmax ([5]; topical or ocular, 0.1 % gel, Topical Gel 0.1% 20% BSA, read-out: TAZAROTENIC ACID Cmax): 12 ng/mL
- Cmax ([5]; topical or ocular, 0.1 % gel, Topical Gel 0.1% Phase 3, in 90%, read-out: TAZAROTENIC ACID Cmax): < 1 ng/mL
- Cmax ([5]; topical or ocular, range over topical studies, read-out: Tazarotenic acid plasma concentrations (Cmax) from topical administration): 0.25 to 12 ng/mL
- TAZAROTENIC ACID Ctrough ([5]; Oral 6.0 mg/Day, listed as TAZAROTENIC ACID): Ctrough 2.56 ng/mL
- TAZAROTENIC ACID Ctrough ([5]; Oral 6.0 mg/Day, listed as tazarotenic acid): 2.56 ng/mL
- eyes tissue/plasma ratio ([6]; FIG. 11): 2%
- Kp at 21 days ([6]; eye, topical, read-out: eye plasma distribution ratio): 0.02
- maximal vitreous concentration of tazarotenic acid (asymptote) ([7]; after intraocular injection of 1.25 μg tazarotene): approximately 10 ng/mL
- half-life ([7]; albino, rabbit, vitreous, other: intraocular injection, mid-vitreous, 1.25 ug, midvitreous dosing of 1.25 μg tazarotenic acid, read-out: vitreous elimination half-life (converted)): 4.24 h

Compound: CC1(C)CCC(C)(C)c2c1cc(C(=O)Nc1cc(F)c(C(=O)O)c(F)c1)c(O)c2Cl [AGN 195183]
- protection of photoreceptors (outer nuclear layer) (photoreceptors): Tazarotene was the only compound to show efficacy
